In patent US9084760B2, “Increasing glutathione levels for therapy” (priority 2008, dated 2015):

Experiments:
red blood cell GSH = experiment: Red blood cell GSH concentration and ASR in nondiabetic elderly humans after 2-week supplementation (Example 4); assay type: in vivo; conditions: after 2-week oral supplementation
Method: (§1) Eight nondiabetic elderly humans were studied in the basal state, and after 2-week oral supplementation with either n-acetylcysteine alone, glycine alone, or both supplements, with a 2-week washout period in-between. […] Plasma lipid peroxides were measured as a marker of ongoing damage due to oxidative stress. Eight younger adult subjects were also recruited as controls.

Plasma lipid peroxides = Plasma lipid peroxides in nondiabetic elderly humans after 2-week supplementation (Example 4); assay type: in vivo; conditions: after 2-week oral supplementation
Method: as §1

red cell GSH = experiment: Red cell GSH concentration, FSR and ASR in diabetics after 2-week supplementation (Example 3); assay type: in vivo, humans; conditions: after 2-week dietary supplementation, Mean±SE
Method: (§2) Eight diabetics were studied before and after 2-week dietary supplementation with either n-acetylcysteine (NAC), glycine, or both. Subjects received infusions of ^2H2-glycine to measure the concentration, fractional synthetic rates (FSR) and absolute synthetic rates (ASR) of red cell GSH. Plasma ROOH and glucose levels were measured. Eight non-diabetic subjects were studied as controls.

lipid peroxides (ROOH) = experiment: Plasma ROOH and glucose in diabetics after 2-week supplementation (Example 3); assay type: in vivo, humans; conditions: after 2-week dietary supplementation
Method: as §2

Row | SMILES | GSH concentration (red blood cell GSH) | GSH-ASR (red blood cell GSH) | concentrations of lipid peroxides (Plasma lipid peroxides) | GSH ASR (red cell GSH) | GSH FSR (red cell GSH) | GSH concentration (red cell GSH) | glycemia (lipid peroxides (ROOH)) | ROOH concentrations (lipid peroxides (ROOH); plasma)
1 | CC(=O)N[C@@H](CS)C(=O)O [n-acetylcysteine] | 1.37±0.30 mmol/L RBC | 0.92 ± 0.23 mmol/L/day | 3.22±1.29 mmol/L ROOH | 0.93 ± 0.18 mmol/L/day | 61±2 %/d | 1.61±0.15 mmol/LRBC | remained unchanged | 5.78±0.78
2 | NCC(=O)O [glycine] | 1.21±0.27 mmol/L RBC | 0.71 ± 0.05 mmol/L/day | 3.57±1.13 mmol/L ROOH | – | – | – | – | –
